In paper PMC2661907, “The Proteasome Is a Molecular Target of Environmental Toxic Organotins” (Environmental Health Perspectives, 2008):

Biological target: T1, 20S proteasome (chymotrypsin-like activity, β5 subunit) (Oryctolagus cuniculus, UniProt G1T4Q9)
T1 construct: gene PSMB5; purified rabbit 20S proteasome; with other subunits of the 20S proteasome
T1 sequence (G1T4Q9 1-263): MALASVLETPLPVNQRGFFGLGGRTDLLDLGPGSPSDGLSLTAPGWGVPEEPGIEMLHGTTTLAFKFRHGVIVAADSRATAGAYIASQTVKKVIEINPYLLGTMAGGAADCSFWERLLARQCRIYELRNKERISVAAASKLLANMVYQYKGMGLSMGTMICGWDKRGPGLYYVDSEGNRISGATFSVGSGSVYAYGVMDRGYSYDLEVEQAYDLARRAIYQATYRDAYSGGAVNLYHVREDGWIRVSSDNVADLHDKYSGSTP
Experiment: fluorogenic peptide CT-like activity assay on purified
Type: biochemical

SMILES: CCC[CH2][Sn]([Cl])([CH2]CCC)[CH2]CCC [TBT, tributyltin chloride]
- IC50: 15.6 µM
